Tested on: Balb/c mice
Test: Bronchodilatory effect of inhaled quaternary ammonium salts; methacholine-induced bronchoconstriction (Penh, whole body plethysmography)
Format: in vivo
Conditions: for inhibition of the bronchoconstriction to methacholine: female BALB/c mice, 5 min inhalation of 1.29 mg/ml aerosol, 80 mg/ml methacholine
Procedure: Female BALB/c mice, weight range 19-22 g, were obtained from Charles River Laboratories (Kingston, N.C.). They received food and water ad libitum. All procedures in these studies were in compliance with the Animal Welfare Act Regulation, 9CFP. Parts 1 and 2, Publication (NIH) 85-23, 1985.
Compounds for aerosol administration were prepared in sterile Dulbecco's Phosphate Buffered Saline. Mice were placed in a carousel-style, nose only, exposure chamber and allowed to inhale aerosols for five minutes, using an ICN SPAG-2 nebulizer. This nebulizer generates a mean aerosol particle size of 1.3 microns at a rate of approximately 0.25 ml/minute.
Ten minutes and 36 hours later, the mice were moved to whole body plethysmograph chambers. Bronchoconstriction was induced in mice by administration of an 80 mg/ml methacholine (MC) aerosol into the plethysmograph chambers for 5 minutes. The mice were allowed to inhale an aerosol containing 80 mg/ml methacholine following inhalation treatment with DPBS vehicle (Dulbecco's Phosphate Buffered Saline), or 80 mg/ml methacholine following inhalation treatment with 1.29 mg/ml of (3S)-3-(2-amino-2-oxo-1,1-diphenylethyl)-1-[2-(2,3-dihydro-1-benzofuran-5-yl)ethyl]-1-methylpyrrolidinium iodide. The average enhanced pause (Penh, lung resistance), corresponding to airflow resistance, was determined and statistically analyzed using Kruskal-Wallis one way ANOVA. In order to determine the baseline, saline aerosol (without methacholine) was also separately administered to the mice.

C[N+]1(CCc2ccc3c(c2)CCO3)CC[C@@H](C(C(N)=O)(c2ccccc2)c2ccccc2)C1.[I-] (stereo partly drawn) [Example I, (3S)-3-(2-amino-2-oxo-1,1-diphenylethyl)-1-[2-(2,3-dihydro-1-benzofuran-5-yl)ethyl]-1-methylpyrrolidinium iodide]
inhibition of the bronchoconstriction to methacholine (measured 10 minutes after dosing (FIG. 1)): 100%
inhibition of the bronchoconstriction to methacholine (measured 36 hours after dosing (FIG. 2)): 61%
efficacy (lung resistance) compared to tertiary amine form (varying concentrations, quaternary compound vs its tertiary amine form (FIGS. 3A-3C)): extended activity
